Experimental data reported in US20240108740A1, “THERAPEUTIC COMPOSITIONS INCLUDING SPN10 AND USES THEREOF” (Stealth BioTherapeutics Inc., priority 2022, published 2024).
Residues, ends and D or L forms follow the SMILES beside them.

Assays:
[1] = system: acute myocardial infarction; test: Infarct size at revascularization in acute myocardial infarction patients; assay type: in vivo, human; details: IV at the time of reperfusion
Text: Men and women, 18 years of age or older, who present after the onset of chest pain, and for whom the clinical decision is made to treat with a revascularization procedure (e.g., PCI or thrombolytics) will be eligible for enrollment. […] The diagnosis is made therefore purely on the basis of symptoms, clinical examination and ECG changes. […] The patient often has a history of having experienced angina, but the ECG at the time of the suspected attack may show no abnormality at all. […] Left ventricular and coronary angiography will be performed with the use of standard techniques, just before revascularization. Revascularization will be performed by PCI with the use of direct stenting. […] The primary end point is the size of the infarct as assessed by measurements of cardiac biomarkers. […] Coronary biomarkers will be measured in each patient. For example, the area under the curve (AUC) (expressed in arbitrary units) for creatine kinase and troponin I release (Beckman kit) may be measured in each patient by computerized planimetry. The principal secondary end point is the size of the infarct as measured by the area of delayed hyperenhancement that is seen on cardiac magnetic resonance imaging (MRI), assessed on day 5 after infarction. […] The images are analyzed in short axis slices covering the entire left ventricle. […]

transplant patients = test: Cyclosporine nephrotoxicity and organ health in transplant patients; assay type: in vivo, human; details: subjects receiving cyclosporine
Text: To prevent organ or tissue rejection after transplant, patients often receive a regimen of the immunosuppressive drug cyclosporine. Cyclosporine levels are established and maintained in the subject at levels to effectively suppress the immune system. However, nephrotoxicity is a concern for these subjects, and the level of the drug in the subject's blood is monitored carefully. Cyclosporine doses are adjusted accordingly in order to not only prevent rejection, but also to deter these potentially damaging side effects. Typically, an adult transplant patient receives cyclosporine as follows: IV: 2 to 4 mg/kg/day IV infusion once daily over 4 to 6 hours, or 1 to 2 mg/kg IV infusion twice a day over 4 to 6 hours, or 2 to 4 mg/kg/day as a continuous IV infusion over 24 hours. Capsules: 8 to 12 mg/kg/day orally in 2 divided doses. Solution: 8 to 12 mg/kg orally once daily. In some patients, doses can be titrated downward with time to maintenance doses as low as 3 to 5 mg/kg/day. […]
Transplant subjects receiving cyclosporine pursuant to standard pre- and post-transplant procedures will be divided into groups. […] Subjects will be monitored for health and function of the transplanted tissue or organ, as well as the incidence and severity of nephrotoxicity often seen with prolonged cyclosporine administration.

Q: With N=C(N)NCCC[C@H](NC(=O)[C@@H](N)Cc1c[nH]c2ccccc12)C(=O)N[C@@H](Cc1c[nH]c2ccccc12)C(=O)N[C@@H](CCCCN)C(N)=O [SPN10, H-L-Trp-L-Arg-L-Trp-L-Lys-NH2] (H-WRWK-NH2) as the molecule, how does the “infarct size versus placebo” value [1] read?
A: smaller infarct

Q: What about the “health of transplanted organ or tissue, cyclosporine dosage maintained” value (transplant patients) of the same molecule?
A: healthier transplanted organ or tissue
